These results are taken from patent US12722014B2, “Method of treating drug resistant hypertension and heart failure with preserved ejection fraction by combined drug treatment with baropacing and beta blockers” (BaroPace, Inc., priority 2020, dated 2026).

Assay [1] in a line: Prospective study of BaroPacing (raising right atrial pacing rate) in 14 subjects with hypertension and dual chamber pacemakers. The assay is classed as in vivo, human. The settings on record: 8 patients taking either Metoprolol or Carvedilol vs 6 subjects not taking any beta blockers (p<0.004 in the latter). An excerpt:
I have prospectively studied 14 subjects with hypertension and dual chamber pacemakers, 6 not taking any beta blockers, and 8 taking either metoprolol or carvedilol. […] PressurePacing or BaroPacing is defined to include the algorithmically controlled pacing methodologies and programmable pacemakers as disclosed in PCT/US19/59703; PCT/US20/025447; PCT/US21/42622; and US Provisional filing 63/123,951, each and all incorporated herein by reference.

Assay [2] in a line: Published retrospective and prospective study of BaroPacing by BaroPace's clinical research team. The assay is classed as in vivo, human. The settings on record: current treatment with the beta blocker. An excerpt: Based on the observation that pacemaker implant in patients with drug resistant hypertension (DRH) and heart failure with preserved ejection fraction (HFpEF) lowers blood pressure and improves clinical outcomes, BaroPace, Inc. is developing technology to treat drug resistant hypertension and (HFpEF) by regulating cardiac pacemakers in real time in response to blood pressure (BaroPacing™). […] The BaroPacing research model offers a now-proven cost efficient means of screening ISA drugs such as pindolol and acebutolol to test this hypothesis. If proven true, besides a new patentable indication, such results could lead to a treatment paradigm shift and clinical revitalization of ISA beta blockers.

For the compound `COc1ccccc1OCCNCC(O)COc1cccc2[nH]c3ccccc3c12` (stereo not drawn) [Carvedilol], the “significant lowering of systolic blood pressure (>10 mmHg) by BaroPacing” value in assay [1] is listed as “lost”. In assay [2], the “beneficial blood pressure lowering effects of BaroPacing” value was “substantially blunts” and the “improvement in New York Heart Association Class seen in HFpEF with BaroPacing” value was “substantially blunts”.
Consider `COCCc1ccc(OCC(O)CNC(C)C)cc1` (stereo not drawn) [Metoprolol, metoprolol], for which the “significant lowering of systolic blood pressure (>10 mmHg) by BaroPacing” value in assay [1] was “lost”. Besides, in assay [2], the “beneficial blood pressure lowering effects of BaroPacing” value was “substantially blunts” and the “improvement in New York Heart Association Class seen in HFpEF with BaroPacing” value is listed as “substantially blunts”.
